Measured values as given in PMC6352943, “Novel pyrazolo[3,4-d]pyrimidines: design, synthesis, anticancer activity, dual EGFR/ErbB2 receptor tyrosine kinases inhibitory activity, effects on cell cycle profile and caspase-3-mediated apoptosis” (Journal of Enzyme Inhibition and Medicinal Chemistry, 2019).

How the values were obtained:
[1] = test system: NCI-H522; assay: NCI 60 cell line single dose screen (SRB); format: cell-based; details: Homo sapiens; NCI-H522 (non-small cell lung cancer), single dose 10^−5 M, 48 h; read-out: Growth inhibition percentage
How it was run: (§1)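 Cells were plated and grown 24 h at 37 °C, 5% CO2 before compound addition from DMSO stock, then exposed 48 h. Adherent cells were fixed with cold TCA (final 10%) and suspension cells with 16% TCA. SRB-stained protein was read at 515 nm and percent growth was calculated against time-zero and untreated plates.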

[2] = test system: T-47D; assay: NCI 60 cell line single dose screen (SRB); format: cell-based; details: Homo sapiens, T47D; T-47D (breast cancer), single dose 10^−5 M, 48 h; read-out: Growth inhibition percentage
How it was run: as §1

[3] = test system: UACC-257; assay: NCI 60 cell line single dose screen (SRB); format: cell-based; details: Homo sapiens; UACC-257 (melanoma), single dose 10^−5 M, 48 h; read-out: Growth inhibition percentage
How it was run: as §1

[4] = test system: EKVX; assay: NCI 60 cell line single dose screen (SRB); format: cell-based; details: Homo sapiens; EKVX (non-small cell lung cancer), single dose 10^−5 M, 48 h; read-out: Growth inhibition percentage
How it was run: as §1

[5] = test system: UO-31; assay: NCI 60 cell line single dose screen (SRB); format: cell-based; details: Homo sapiens; UO-31 (renal cancer), single dose 10^−5 M, 48 h; read-out: Growth inhibition percentage
How it was run: as §1

[6] = test system: MCF7; assay: NCI 60 cell line single dose screen (SRB); format: cell-based; details: Homo sapiens; MCF7 (breast cancer), single dose 10^−5 M, 48 h; read-out: Growth inhibition percentage
How it was run: as §1

[7] = test system: KM12; assay: NCI 60 cell line single dose screen (SRB); format: cell-based; details: Homo sapiens; KM12 (colon cancer), single dose 10^−5 M, 48 h; read-out: Growth inhibition percentage
How it was run: as §1

[8] = test system: SK-MEL-28; assay: NCI 60 cell line single dose screen (SRB); format: cell-based; details: Homo sapiens; SK-MEL-28 (melanoma), single dose 10^−5 M, 48 h; read-out: Growth inhibition percentage
How it was run: as §1

[9] = test system: COLO 205; assay: NCI 60 cell line single dose screen (SRB); format: cell-based; details: Homo sapiens, COLO 205, 48 h; read-out: Growth inhibition percentage
How it was run: as §1

[10] = test system: OVCAR-5; assay: NCI 60 cell line single dose screen (SRB); format: cell-based; details: Homo sapiens; OVCAR-5 (ovarian cancer), single dose 10^−5 M, 48 h; read-out: Growth inhibition percentage
How it was run: as §1

[11] = test system: SK-MEL-2; assay: NCI 60 cell line single dose screen (SRB); format: cell-based; details: Homo sapiens; SK-MEL-2 (melanoma), single dose 10^−5 M, 48 h; read-out: Growth inhibition percentage
How it was run: as §1

[12] = test system: MDA-MB-231/ATCC; assay: NCI 60 cell line single dose screen (SRB); format: cell-based; details: Homo sapiens; MDA-MB-231/ATCC (breast cancer), single dose 10^−5 M, 48 h; read-out: Growth inhibition percentage
How it was run: as §1

[13] = test system: A549/ATCC; assay: NCI 60 cell line single dose screen (SRB); format: cell-based; details: Homo sapiens; A549/ATCC (non-small cell lung cancer), single dose 10^−5 M, 48 h; read-out: Growth inhibition percentage
How it was run: as §1

[14] = test system: PC-3; assay: NCI 60 cell line single dose screen (SRB); format: cell-based; details: Homo sapiens; PC-3 (prostate cancer), single dose 10^−5 M, 48 h; read-out: Growth inhibition percentage
How it was run: as §1

[15] = test system: RPMI-8226; assay: NCI 60 cell line single dose screen (SRB); format: cell-based; details: Homo sapiens; RPMI-8226 (leukemia), single dose 10^−5 M, 48 h; read-out: Growth inhibition percentage
How it was run: as §1

[16] = test system: NCI-H460; assay: NCI 60 cell line single dose screen (SRB); format: cell-based; details: Homo sapiens; NCI-H460 (non-small cell lung cancer), single dose 10^−5 M, 48 h; read-out: Growth inhibition percentage
How it was run: as §1

SMILES | inhibition at 10 µM [1] | inhibition at 10 µM [2] | inhibition at 10 µM [3] | inhibition at 10 µM [4] | inhibition at 10 µM [5] | inhibition at 10 µM [6] | inhibition at 10 µM [7] | inhibition at 10 µM [8] | inhibition at 10 µM [9] | inhibition at 10 µM [10] | inhibition at 10 µM [11] | inhibition at 10 µM [12] | inhibition at 10 µM [13] | inhibition at 10 µM [14] | inhibition at 10 µM [15] | inhibition at 10 µM [16] | melting point
Cc1nn(-c2ccc(F)cc2)c2nc[nH]c(=O)c12 [Compound 3, 1–(4-Fluorophenyl)-3-methyl-1H-pyrazolo[3,4-d]pyrimidin-4(5H)-one] | 4.92% | 0.23% | -8.15% | 36.2% | 11.7% | 2.7% | 1.48% | -14.1% | -14.9% | -10.4% | -5.1% | -9.78% | -2.93% | 1.46% | -10.2% | -9.62% | > 300 °C
Cc1nn(-c2ccc(F)cc2)c2ncnc(N)c12 [Compound 4, 1–(4-Fluorophenyl)-3-methyl-1H-pyrazolo[3,4-d]pyrimidin-4-amine] | 6.49% | 4.18% | -14.2% | 19.1% | 11.3% | 9.82% | 3.5% | -3.55% | -18.4% | -4.61% | 1.74% | -10.8% | -4.88% | 1.03% | -17.5% | -9.3% | > 300 °C
Cc1nn(-c2ccc(F)cc2)c2nc(N)nc(N)c12 [Compound 5, 1–(4-Fluorophenyl)-3-methyl-1H-pyrazolo[3,4-d]pyrimidine-4,6-diamine] | 2.08% | -2.65% | -18.7% | 6.25% | 14.2% | 0.73% | 1.24% | -4.89% | -13.5% | -1.61% | 3.86% | -9.11% | -1.96% | 3.59% | -3.69% | -18.8% | > 300 °C
Cc1nn(-c2ccc(F)cc2)c2ncnc(Cl)c12 [Compound 6, 4-Chloro-1–(4-fluorophenyl)-3-methyl-1H-pyrazolo[3,4-d]pyrimidine] | 59% | 0.28% | 17.4% | 9.08% | 11.8% | 11.6% | 0.99% | -4.92% | -14.9% | -12.3% | 11% | 10.8% | 11.6% | 14.8% | 2.21% | -0.07% | 178 to 180 °C
Cc1ccc(Nc2ncnc3c2c(C)nn3-c2ccc(F)cc2)cc1 [Compound 7c, 1–(4-Fluorophenyl)-3-methyl-N-(p-tolyl)-1H-pyrazolo[3,4-d]-pyrimidin-4-amine] | 11% | 14.6% | -7.62% | 3.39% | 8.66% | 6.19% | -1.11% | -11.1% | -13.3% | -0.5% | 10.9% | -2.67% | 3.08% | 7.23% | -4.47% | -9.33% | –
Cc1nn(-c2ccc(F)cc2)c2ncnc(Nc3ccc(F)c(Cl)c3)c12 [Compound 7d, N-(3-Chloro-4-fluorophenyl)-1–(4-fluorophenyl)-3-methyl-1H-pyrazolo[3,4-d] pyrimidin-4-amine] | 10.4% | 27.4% | -1.41% | 14.5% | 25.5% | 15.7% | 1.96% | -4.63% | -3.96% | 4.92% | 2.61% | 14.2% | 40.5% | 17.2% | 9.77% | 58.5% | –
Cc1nn(-c2ccc(F)cc2)c2ncnc(N3CCOCC3)c12 [Compound 8a, 1–(4-Fluorophenyl)-3-methyl-4-morpholino-1H-pyrazolo[3,4-d]pyrimidine] | 8.03% | -22.2% | -5.9% | 19.5% | 5.57% | 9.07% | 0.04% | -12.6% | -7.19% | -3.95% | 1.49% | -10.4% | -0.09% | 5.06% | 2% | -8.23% | –
Cc1nn(-c2ccc(F)cc2)c2ncnc(N3CCN(c4ccc(Cl)cc4)CC3)c12 [Compound 8c, 4–(4-(4-Chlorophenyl)piperazin-1-yl)-1–(4-fluorophenyl)-3-methyl-1H-pyrazolo[3,4-d]pyrimidine] | 8.23% | 10.3% | -0.44% | 20.6% | 34.9% | 3.1% | 2.24% | -3.74% | -1.97% | -2.91% | 9.37% | 7.92% | -3.31% | 11.3% | -8.37% | -4.35% | 167 to 169 °C
COc1ccc(N2CCN(c3ncnc4c3c(C)nn4-c3ccc(F)cc3)CC2)cc1 [Compound 8d, 1–(4-Fluorophenyl)-4–(4-(4-methoxyphenyl)piperazin-1-yl)-3-methyl-1H-pyrazolo[3,4-d]pyrimidine] | 3.59% | 3.85% | -6.35% | 7.21% | 21.3% | 1.6% | 0.4% | -8.74% | -7.56% | -7.96% | -1.69% | 2.36% | -4.08% | 12.5% | 6.45% | -4.87% | –
Cc1nn(-c2ccc(F)cc2)c2ncnc(NN)c12 [Compound 9, 1–(4-Fluorophenyl)-4-hydrazinyl-3-methyl-1H-pyrazolo[3,4-d]-pyrimidine] | 10.3% | 32% | -3.21% | 17% | 28.7% | 11.5% | 3.79% | 2.1% | -11.7% | -7.64% | 18.3% | 23.1% | -5.98% | 13.8% | -6.21% | -11.7% | 208 to 210 °C
COc1cc(C=NNc2ncnc3c2c(C)nn3-c2ccc(F)cc2)ccc1O [Compound 10b, 1–(4-Fluorophenyl)-4–(2-(4-hydroxy-3-methoxybenzylidene)-hydrazinyl)-3-methyl-1H-pyrazolo[3,4-d]pyrimidine] | 27.1% | 20.1% | -14.1% | 12.4% | 35.6% | 14.7% | 28.1% | -7.04% | -4.39% | -30.9% | 10.2% | 15.6% | 2.36% | 27% | 7.52% | 11.9% | 221 to 223 °C
